Here are results for 25 compounds from PubChem BioAssay AID328 (DTP/NCI, 2004).

The test system of the experiment is BDF1 mice, P388 leukemia ip, median survival T/C. In words: NCI In Vivo Anticancer Drug Screen. Data for tumor model P388 Leukemia (intraperitoneal) in B6D2F1 (BDF1) mice. The settings on record: endpoint: median survival time, higher = longer survival. In outline: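 Mice carrying the transplantable tumour receive compound or vehicle. Survival is followed in each arm, and the treated measure is divided by the vehicle measure.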

Setting [1] is: dose: 50.0 mg/kg/injection, schedule: Q01DX009 (ip), vehicle: saline.
The mark [2] stands for this setting: dose: 100.0 mg/kg/injection, schedule: Q01DX009 (ip), vehicle: saline.
Where [3] appears, read: dose: 100.0 mg/kg/injection, schedule: Q04DX003 (ip), vehicle: saline.
[4] abbreviates: dose: 200.0 mg/kg/injection, schedule: Q01DX009 (ip), vehicle: saline.
[5] abbreviates: dose: 200.0 mg/kg/injection, schedule: Q04DX003 (ip), vehicle: saline.
The mark [6] stands for this setting: dose: 400.0 mg/kg/injection, schedule: Q01DX009 (ip), vehicle: saline.
Where [7] appears, read: dose: 400.0 mg/kg/injection, schedule: Q04DX003 (ip), vehicle: saline.
Setting [8] is: dose: 50.0 mg/kg/injection, schedule: Q04DX003 (ip), vehicle: saline with Tween-80.
Where [9] appears, read: dose: 25.0 mg/kg/injection, schedule: Q04DX003 (ip), vehicle: saline.
Setting [10] is: dose: 50.0 mg/kg/injection, schedule: Q04DX003 (ip), vehicle: saline.
[11] abbreviates: dose: 100.0 mg/kg/injection, schedule: Q04DX003 (ip), vehicle: saline with Tween-80.
Where [12] appears, read: dose: 200.0 mg/kg/injection, schedule: Q04DX003 (ip), vehicle: saline with Tween-80.
Where [13] appears, read: dose: 400.0 mg/kg/injection, schedule: Q04DX003 (ip), vehicle: saline with Tween-80.
Where [14] appears, read: dose: 50.0 mg/kg/injection, schedule: Q01DX009 (ip), vehicle: saline with Tween-80.
[15] abbreviates: dose: 100.0 mg/kg/injection, schedule: Q01DX009 (ip), vehicle: saline with Tween-80.
[16] abbreviates: dose: 200.0 mg/kg/injection, schedule: Q01DX009 (ip), vehicle: saline with Tween-80.

“And” between values parts separate entries of the source, which are not always exact repeats. Equal values may be shown once. Inconclusive results and toxic doses are left out.

With `O=C(O)CCCC1CCC(=O)CC1`, the T/C under setting [1] is 90 % of control; the T/C (dose: 100.0 mg/kg/injection, schedule: Q01DX001 (ip), vehicle: other) is 95 % of control; the T/C under setting [2] is 90 % of control; the T/C under setting [3] was 104 % of control; the T/C (dose: 200.0 mg/kg/injection, schedule: Q01DX001 (ip), vehicle: other) was 104 % of control; the T/C under setting [4] was 110 % of control. The T/C is, setting by setting: under setting [5], 104 % of control; (dose: 400.0 mg/kg/injection, schedule: Q01DX001 (ip), vehicle: other) 120 % of control; under setting [6], 110 % of control; under setting [7], 109 % of control.

As to `OCCNCCNCC[OH2+].OCCNCCNCC[OH2+].[Ni+2].[O-][Cl+3]([O-])([O-])[O-]`, under setting [1], the T/C was 92 % of control.

As for `CC[C@H](C)c1occ2c(O)c(C(=O)O)c(=O)cc-2c1C`, the T/C was 100 % of control (dose: 6.0 mg/kg/injection, schedule: Q01DX009 (ip), vehicle: Klucel (hydroxypropylcellulose) (HPC)); 118 % of control (dose: 12.0 mg/kg/injection, schedule: Q01DX009 (ip), vehicle: Klucel (hydroxypropylcellulose) (HPC)); 118 % of control (dose: 25.0 mg/kg/injection, schedule: Q01DX009 (ip), vehicle: Klucel (hydroxypropylcellulose) (HPC)).

As for `Cc1ccc(N2C(=O)C=CC2=O)cc1`, the T/C is, setting by setting: (dose: 5.0 mg/kg/injection, schedule: Q01DX009 (ip), vehicle: saline sonified) 100 % of control; (dose: 10.0 mg/kg/injection, schedule: Q01DX009 (ip), vehicle: saline sonified) 119 % of control; (dose: 20.0 mg/kg/injection, schedule: Q01DX009 (ip), vehicle: saline sonified) 100 % of control.

As for `O=C(OCC(OC(=O)c1ccccc1)C(OC(=O)c1ccccc1)C(OC(=O)c1ccccc1)C(COC(=O)c1ccccc1)OC(=O)c1ccccc1)c1ccccc1` (configuration not stated), the T/C is 97 % of control (dose: 6.25 mg/kg/injection, schedule: Q04DX003 (ip), vehicle: saline with Tween-80); 92 % of control (dose: 12.5 mg/kg/injection, schedule: Q04DX003 (ip), vehicle: saline with Tween-80); 97 % of control (dose: 25.0 mg/kg/injection, schedule: Q04DX003 (ip), vehicle: saline with Tween-80); 87 % of control under setting [8].

With `O=C(O)c1cc2c(Br)cccc2c2cc(C(F)(F)F)ccc12`, the T/C (dose: 50.0 mg/kg/injection, schedule: Q04DX003 (ip), vehicle: saline sonified) was 95 % of control; the T/C (dose: 100.0 mg/kg/injection, schedule: Q04DX003 (ip), vehicle: saline sonified) is 100 % of control; the T/C (dose: 200.0 mg/kg/injection, schedule: Q04DX003 (ip), vehicle: saline sonified) was 100 % of control.

As for `C=CCN(CC=C)CC=C`, the T/C is, setting by setting: under setting [9], 111 % of control; under setting [10], 108 % of control; under setting [3], 111 % of control.

For the compound `CCOC(=O)c1c(OCCCc2ccc(F)cc2)cc2ccc3ccccc3c2c1OCCCc1ccc(F)cc1`, the T/C reads like this: under setting [11], 86 % of control; under setting [12], 87 % of control; under setting [13], 103 % of control.

On to `O=C1NN=C(c2ccc(Br)cc2)CS1`, for which the T/C under setting [14] is 100 % of control and the T/C under setting [15] was 102 % of control.

For the compound `CCOC(=O)CNC(=O)NC12CC3CC(CC(C3)C1)C2`, the T/C under setting [2] is 119 % of control, the T/C under setting [4] was 104 % of control and the T/C under setting [6] is 102 % of control.

Turning to `CCCCC(CC)COP(=O)(CC(CC)CCCC)OCC(CC)CCCC` (configuration not stated), the T/C (dose: 25.0 mg/kg/injection, schedule: Q01DX009 (ip), vehicle: saline with Tween-80) was 100 % of control.

Turning to `COc1ccc(C(Br)C(Br)C(=O)c2ccc3c(c2)OCO3)cc1OC` (configuration not stated), the T/C reads like this: under setting [9], 104 % of control; under setting [10], 90 % of control; under setting [3], 113 % of control; under setting [5], 97 % of control; under setting [7], 90 % of control; (dose: 600.0 mg/kg/injection, schedule: Q04DX003 (ip), vehicle: saline) 119 % of control.

As to `Nc1nc(SCc2ccccc2)c2ncn(C3CCCC3)c2n1`, the T/C under setting [11] is 100 % of control, the T/C under setting [12] was 100 % of control and the T/C under setting [13] was 100 % of control.

Regarding `CC(c1ccccc1)c1ccc(O)cc1` (configuration not stated), the T/C under setting [14] was 110 % of control; the T/C under setting [15] was 110 % of control; the T/C under setting [3] is 100 % of control; the T/C under setting [16] is 110 % of control; the T/C under setting [5] is 91 % of control.

Turning to `COC(=O)c1sccc1C=O`, the T/C by setting is: (dose: 100.0 mg/kg/injection, schedule: Q04DX003 (ip), vehicle: Klucel (hydroxypropylcellulose) (HPC)) 96 % of control; (dose: 200.0 mg/kg/injection, schedule: Q04DX003 (ip), vehicle: Klucel (hydroxypropylcellulose) (HPC)) 96 % of control; (dose: 400.0 mg/kg/injection, schedule: Q04DX003 (ip), vehicle: Klucel (hydroxypropylcellulose) (HPC)) 92 % of control.

Take `C[N+](C)(C)CCO`: the T/C by setting is: under setting [3], 100 % of control; under setting [5], 105 % of control; under setting [7], 110 % of control.

In the case of `CC1=Nc2ccccc2NC(C)(C)C1`, the T/C reads like this: under setting [3], 101 % of control; under setting [5], 99 % of control; under setting [7], 90 % of control.

Take `COc1ccc2c(ccc[n+]2C)c1`: the T/C reads like this: (dose: 7.2 mg/kg/injection, schedule: Q01DX009 (ip), vehicle: saline) 104 % of control; (dose: 9.37 mg/kg/injection, schedule: Q04DX003 (ip), vehicle: saline) 91 % of control; (dose: 10.0 mg/kg/injection, schedule: Q01DX009 (ip), vehicle: saline) 104 % of control; (dose: 18.75 mg/kg/injection, schedule: Q04DX003 (ip), vehicle: saline) 91 % of control; (dose: 35.0 mg/kg/injection, schedule: Q04DX003 (ip), vehicle: saline) 122 % of control; (dose: 36.7 mg/kg/injection, schedule: Q04DX003 (ip), vehicle: saline) 110 % of control. Also, the T/C is 150 % of control and 155 % of control (dose: 37.5 mg/kg/injection, schedule: Q01DX009 (ip), vehicle: saline); 104 % of control (dose: 37.5 mg/kg/injection, schedule: Q04DX003 (ip), vehicle: saline); 154 % of control (dose: 55.0 mg/kg/injection, schedule: Q04DX003 (ip), vehicle: saline).

Regarding `Nc1c2ccccc2cc2ccccc12`, the T/C is, setting by setting: under setting [14], 108 % of control; under setting [8], 108 % of control; under setting [15], 108 % of control; under setting [11], 95 % of control; under setting [16], 113 % of control; under setting [12], 91 % of control.

On to `Cc1c(Cl)cccc1NC(=O)Nc1cccc2ccccc12`, for which the T/C was 91 % of control under setting [11], 100 % of control under setting [12] and 108 % of control under setting [13].

As for `O=CNc1ccc(O)cc1`, the T/C under setting [11] is 104 % of control, the T/C under setting [12] was 104 % of control and the T/C under setting [13] was 100 % of control.

With `Cn1nnc2nnc(-c3ccccc3)n21`, the T/C under setting [15] is 100 % of control; the T/C under setting [11] was 100 % of control; the T/C under setting [16] is 103 % of control; the T/C under setting [12] is 100 % of control; the T/C under setting [13] is 95 % of control.

As to `O=C(Nc1cccc(Cl)c1)ON1CCCCC1`, the T/C was 106 % of control under setting [14], 97 % of control under setting [15] and 100 % of control under setting [16].

On to `Cc1ccc(N2CCOC2=O)cc1N1CCOC1=O`, for which the T/C by setting is: (dose: 25.0 mg/kg/injection, schedule: Q01DX009 (ip), vehicle: other) 100 % of control; (dose: 25.0 mg/kg/injection, schedule: Q04DX003 (ip), vehicle: other) 109 % of control; (dose: 50.0 mg/kg/injection, schedule: Q01DX009 (ip), vehicle: other) 100 % of control; (dose: 50.0 mg/kg/injection, schedule: Q04DX003 (ip), vehicle: other) 100 % of control; (dose: 100.0 mg/kg/injection, schedule: Q01DX009 (ip), vehicle: other) 109 % of control; (dose: 100.0 mg/kg/injection, schedule: Q04DX003 (ip), vehicle: other) 100 % of control.

Turning to `OC12CCCCC1Cc1cc3c(cc1O2)CC1CCCCC1(O)O3` (configuration not stated), the T/C runs as follows: under setting [14], 100 % of control; under setting [15], 93 % of control; under setting [16], 96 % of control.
